Data published in PubChem BioAssay (NCI).
Several values for one entry are separate records, joined by “and”; a condition that tells them apart may be missing. Identical values can stand only once.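 In this assay, cells in 96-well plates receive the compound at five concentrations for 48 hours. Endpoints are linearly interpolated between the surrounding concentrations. GI50: concentration for 50% inhibition of growth. Definition used: TGI = concentration required for complete inhibition of growth.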

Legend:
Assay in all cases: inhibition of tumour cell growth, NCI panel, 48 h
A549 NSCLC = system: A549 NSCLC
HCT-15 colon = system: HCT-15 colon
M14 melanoma = system: M14 melanoma
OVCAR-5 ovarian = system: OVCAR-5 ovarian
OVCAR-8 ovarian = system: OVCAR-8 ovarian
SNB-78 CNS = system: SNB-78 CNS
CCRF-CEM leukemia = system: CCRF-CEM leukemia
HT29 colon = system: HT29 colon
M19-MEL melanoma = system: M19-MEL melanoma
MDA-MB-435 = system: MDA-MB-435

SMILES | GI50 (A549 NSCLC) | TGI (A549 NSCLC) | GI50 (HCT-15 colon) | TGI (HCT-15 colon) | GI50 (M14 melanoma) | TGI (M14 melanoma) | GI50 (OVCAR-5 ovarian) | TGI (OVCAR-5 ovarian) | GI50 (OVCAR-8 ovarian) | TGI (OVCAR-8 ovarian) | GI50 (SNB-78 CNS) | TGI (SNB-78 CNS) | TGI (CCRF-CEM leukemia) | TGI (HT29 colon) | TGI (M19-MEL melanoma) | GI50 (CCRF-CEM leukemia) | GI50 (HT29 colon) | GI50 (M19-MEL melanoma) | TGI (MDA-MB-435) | GI50 (MDA-MB-435)
C1COCCN1.C1COCCN1.N.N.[Cl-].[Pt+2] | > 100 µM | > 100 µM | > 100 µM | > 100 µM | > 100 µM | > 100 µM | > 100 µM | > 100 µM | > 100 µM | > 100 µM | > 100 µM | > 100 µM | – | – | – | – | – | – | – | –
CC(=O)OC1=C2CC3(C)OC(=O)CC(C)(C)C3=CC=C2C=C(C(C)C)C1=O (stereo not drawn) | – | 3.78 µM | – | 0.392 µM | – | 0.912 µM | – | 2.24 µM | – | 0.779 µM | – | 0.985 µM | 1.02 µM | 2.73 µM | 1.75 µM | – | – | – | – | –
O=c1[nH]c2ccccc2cc1C(Cl)=C(Cl)Cl | – | > 100 µM | – | – | – | > 100 µM | – | > 100 µM | – | > 100 µM | – | > 100 µM | > 100 µM | > 100 µM | > 100 µM | – | – | – | – | –
CCCCCCCCCCCCCCCC(=O)NCC(COP(=O)([O-])OCC[N+](C)(C)C)OCC (stereo not drawn) | – | 45.7 µM | – | 19.3 µM | – | 24.7 µM | – | 22 µM | – | 17.2 µM | – | 29.6 µM | – | 16.3 µM | 16.2 µM | – | – | – | – | –
CN(C)/C(=N/C(=S)Nc1ccccc1)SCc1ccccc1 | – | > 100 µM | – | > 100 µM | – | > 100 µM | – | > 100 µM | – | > 100 µM | – | > 100 µM | > 100 µM | > 100 µM | > 100 µM | – | – | – | – | –
CCOC(=O)CC1=Nc2ccccc2SC1 | – | > 100 µM | – | > 100 µM | – | > 100 µM | – | > 100 µM | – | > 100 µM | – | > 100 µM | – | > 100 µM | > 100 µM | – | – | – | – | –
N#CC1(c2nc3ccccc3o2)C(=O)C(=O)N(C2C3CC4CC(C3)CC2C4)C(=O)C1=O (stereo not drawn) | – | > 100 µM | – | > 100 µM | – | > 100 µM | – | > 100 µM | – | > 100 µM | – | > 100 µM | > 100 µM | > 100 µM | > 100 µM | – | – | – | – | –
C=CCSC[C@H](NC(=O)COc1ccccc1)C(=O)NC(C(=O)OCc1ccc([N+](=O)[O-])cc1)=C(C)C | – | > 100 µM | – | > 100 µM | – | > 100 µM | – | – | – | > 100 µM | – | > 100 µM | > 100 µM | > 100 µM | > 100 µM | – | – | – | – | –
CC(=O)[CH-]C(=O)c1ccccc1.CC(=O)[CH-]C(=O)c1ccccc1.CCCCCCCCCCCCCCCCCC(=O)[O-].CCCCCCCCCCCCCCCCCC(=O)[O-].[Ti+4] | 19 µM | 37.3 µM | 32.9 µM | 69.6 µM | 17.4 µM | 31.9 µM | 36.7 µM | > 100 µM | 22.6 µM | 48.3 µM | – | – | 86.3 µM | 44.9 µM | 97.9 µM | 23.2 µM | 20.8 µM | 27.6 µM | – | –
CSC1=NC=CCN1C | – | > 100 µM | – | > 100 µM | – | > 100 µM | – | > 100 µM | – | > 100 µM | – | – | > 100 µM | > 100 µM | > 100 µM | – | – | – | – | –
O=c1cc(-c2cccc(F)c2)[nH]c2cc3c(cc12)OCO3 | 0.498 µM | 21.9 µM and 40.9 µM | 0.29 µM | 12.1 µM and > 24.9 µM | 0.286 µM | 75 µM and 23.8 µM | – | > 100 µM | 0.286 µM | 5.02 µM and 1.55 µM | – | 75 µM | 75 µM and > 10.8 µM | 3.23 µM and 0.705 µM | 75 µM | 0.346 µM | 0.69 µM and 0.172 µM | – | 0.0211 µM | –
COc1cc2c(c3c1C=CCO3)C(=O)c1ccccc1C2=O | – | > 100 µM | – | > 100 µM | – | > 100 µM | – | > 100 µM | – | > 100 µM | – | > 100 µM | 66.4 µM | > 100 µM | > 100 µM | – | – | – | – | –
COc1ccc2cc1Oc1ccc(cc1)C[C@H]1c3cc(c(OC)cc3CCN1C)Oc1c(OC)c(OC)cc3c1[C@H](C2)N(C)CC3 | – | – | 5.99 µM | 16.5 µM and 18.5 µM | – | – | – | – | 6.53 µM | 16.3 µM and 19.2 µM and > 100 µM | – | 21.1 µM | – | – | – | – | – | – | – | –
FC(F)(F)c1nc(-c2ccccc2Cl)[nH]c1C(F)(F)F | – | 3.06 µM | – | 3.52 µM | – | 4.83 µM | – | – | – | 6.14 µM | – | > 29.5 µM | 1.6 µM | 4.22 µM | 3.77 µM | – | – | – | – | –
O=[N+]([O-])[C@@H]1C2C=CC(C2)[C@H]1Cl (stereo partly drawn) | – | > 100 µM | – | > 100 µM | – | > 100 µM | – | > 100 µM | – | > 100 µM | – | > 100 µM | > 100 µM | > 100 µM | > 100 µM | – | – | – | – | –
O=C(C#Cc1c[nH]c(=O)[nH]c1=O)c1ccccc1Cl | – | > 100 µM | – | 28.7 µM | – | 28.8 µM | – | 34 µM | – | 29.3 µM | – | 60.7 µM | 59.8 µM | 96.9 µM | – | – | – | – | – | –
CCOC(=O)C1(CC)CCCCC(=O)N1 (stereo not drawn) | – | > 100 µM | – | > 100 µM | – | > 100 µM | – | – | – | > 100 µM | – | > 100 µM | > 100 µM | > 100 µM | > 100 µM | – | – | – | – | –
COC(=O)C(c1[nH]nc2ccccc12)C(C(=O)OC)c1[nH]nc2ccccc12 (stereo not drawn) | – | > 100 µM | – | > 100 µM | – | > 100 µM | – | > 100 µM | – | 77.6 µM | – | > 100 µM | > 100 µM | > 100 µM | > 100 µM | – | – | – | – | –
COc1cc(-n2cc(-c3ccc(Cl)c(Cl)c3)nc2SCc2ccccc2)cc(OC)c1OC | > 100 µM | > 100 µM | > 100 µM | > 100 µM | > 100 µM | > 100 µM | > 100 µM | > 100 µM | > 100 µM | > 100 µM | – | – | > 100 µM | > 100 µM | – | > 100 µM | > 100 µM | – | > 100 µM | > 100 µM
